Results on two compounds are retold here after patent publication US5710174A, “Factor XIIIA inhibitor” (Zymo Genetics, Inc., priority 1995, dated 1998).

Data set [1] addresses T1, tissue transglutaminase (tTG) (Cavia cutleri, UniProt P08587).
T1 construct: purchased Sigma
T1 sequence (P08587 1-690): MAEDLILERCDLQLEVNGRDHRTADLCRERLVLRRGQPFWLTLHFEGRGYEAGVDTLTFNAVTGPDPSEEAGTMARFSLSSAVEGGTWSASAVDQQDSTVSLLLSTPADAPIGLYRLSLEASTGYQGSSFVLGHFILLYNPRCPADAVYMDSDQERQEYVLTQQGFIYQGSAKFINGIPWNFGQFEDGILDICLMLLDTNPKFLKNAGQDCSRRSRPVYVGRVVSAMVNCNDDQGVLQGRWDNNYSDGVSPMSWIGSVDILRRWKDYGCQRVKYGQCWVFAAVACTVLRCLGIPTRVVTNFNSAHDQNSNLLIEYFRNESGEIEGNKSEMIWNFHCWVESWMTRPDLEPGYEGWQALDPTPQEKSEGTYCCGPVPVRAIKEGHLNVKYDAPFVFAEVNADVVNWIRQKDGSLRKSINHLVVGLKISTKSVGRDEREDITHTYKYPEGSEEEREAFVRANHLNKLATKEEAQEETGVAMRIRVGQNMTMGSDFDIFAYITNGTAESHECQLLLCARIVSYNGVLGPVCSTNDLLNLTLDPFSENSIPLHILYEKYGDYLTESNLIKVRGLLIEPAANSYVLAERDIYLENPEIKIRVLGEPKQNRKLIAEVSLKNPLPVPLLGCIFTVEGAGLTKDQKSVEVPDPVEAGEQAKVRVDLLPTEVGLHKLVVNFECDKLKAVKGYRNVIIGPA
The data set is described as follows: tTG screening assay. Format: biochemical. The source says:
Because FXIII is a member of the tissue transglutaminase (tTG) family, all potential FXIIIa inhibitors identified in the primary FXIIIa screening assay were further screened for tTG (non-FXIII-specific) inhibitory activity. The tTG screening assay was identical to the primary FXIIIa screening assay, except that tTG (Sigma) was used instead of FXIIIa and no thrombin or PPACK was used.
The determination of IC50 values was done the same as in the primary FXIIIa screening assay, except that purified compounds were used at varying concentrations (instead of crude culture extracts). The IC50 values allow one to make comparisons of one compound to another.

In data set [2] the test system is plasma clots. The data set is described as follows: Plasma clot lysis assay. On the set-up: species or system human. As to conditions: 100 μM. On the procedure:
For this assay, 50 μl of one of a series of concentrations of iodoacetic acid, cerulenin, or ZG-1400a was added to 0.5 ml human citrated plasma (prepared from one blood donor) in 5 ml polypropylene tubes. The ZG-1400a and iodoacetic acid were individually prepared in 10% DMSO and tested using half-log dilutions, starting at a final assay concentration of 100 μM and diluting to 10 μM. Cerulenin was prepared in 10% ethanol and tested using half-log dilutions, starting at a final assay concentration of 100 μM and diluting to 10 μM.
Approximately 10^6 cpm ^125 I-fibrinogen (Amersham), 50 mM CaCl2 (20 mM above citrate concentration) and 5 units thrombin (bovine, Enzyme Research Labs) were added to each test and control tube. The tubes were incubated while rocking for 20 h at 37° C. Plasma clots formed in the tubes were washed three times with about 1 ml phosphate buffered saline (PBS). The plasma clots in each tube were counted after the PBS washes.
Approximately 2 ml of 50 mM Tris, pH 7.4, containing 50 mM NaCl, 28 μg plasminogen (human, Calbiochem), and 280 ng urokinase (human, Calbiochem) were added to the clots in test and control tubes. At 1, 2, and 4 h intervals, 25 μl aliquots of the samples were removed from each tube and counted.
The values shown in Table 3 represent the amount of lysis after plasma clots were formed for about 20 h and exposed to plasminogen and urokinase for about 4 h.

Data set [3] has as its target T2, FXIIIa (Homo sapiens, UniProt P00488).
T2 sequence (P00488 39-732 limits assumed): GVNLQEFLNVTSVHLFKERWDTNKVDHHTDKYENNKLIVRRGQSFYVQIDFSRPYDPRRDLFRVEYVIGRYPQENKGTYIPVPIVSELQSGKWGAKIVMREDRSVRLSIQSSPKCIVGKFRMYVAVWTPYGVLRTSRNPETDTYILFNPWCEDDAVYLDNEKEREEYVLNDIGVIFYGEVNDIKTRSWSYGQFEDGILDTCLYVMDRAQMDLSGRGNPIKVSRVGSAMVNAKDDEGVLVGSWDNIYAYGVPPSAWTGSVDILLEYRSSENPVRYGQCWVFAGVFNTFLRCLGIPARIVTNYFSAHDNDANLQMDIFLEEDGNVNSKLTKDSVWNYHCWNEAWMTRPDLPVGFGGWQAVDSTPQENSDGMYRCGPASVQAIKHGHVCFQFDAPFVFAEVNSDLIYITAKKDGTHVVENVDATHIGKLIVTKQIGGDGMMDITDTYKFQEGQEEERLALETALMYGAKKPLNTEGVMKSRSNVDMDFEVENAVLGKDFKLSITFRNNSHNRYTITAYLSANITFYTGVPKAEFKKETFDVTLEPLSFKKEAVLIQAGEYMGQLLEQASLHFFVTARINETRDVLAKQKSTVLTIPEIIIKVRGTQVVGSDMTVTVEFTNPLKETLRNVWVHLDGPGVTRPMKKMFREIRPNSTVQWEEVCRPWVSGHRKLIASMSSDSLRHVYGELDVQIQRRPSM
The data set is described as follows: Primary FXIIIa screening assay (cross-linking of biotinylated fibrinogen and immobilized fibronectin). The data set is classed as biochemical.
Description: The primary FXIIIa screening assay used a 96-well high throughput assay format. This assay assesses test sample inhibition of FXIIIa catalyzed cross-linking of biotinylated fibrinogen and immobilized fibronectin.
Test samples (possibly containing FXIIIa inhibitors) were added to 96-well plates coated with fibronectin, followed by the addition of FXIIIa, as described in the primary FXIIIa screening assay, below. Biotinylated fibrinogen was added to the wells, and streptavidin-alkaline phosphatase was used to detect biotinylated fibrinogen that had been cross-linked to fibronectin.
Purified fibronectin was diluted to 1 μg/ml in 0.1M Na2 CO3, pH 9.7, and added to control and test assay wells of 96-well plates at 100 μl/well. All wells were incubated overnight at 4° C.
After incubation, the plate wells were washed twice with 200 μl/well of wash buffer per wash to remove all fibronectin not bound to the wells. The wash buffer contained 0.135M NaCl, 2.7 mM KCl, 25 mM Tris at about pH 7.4, and 0.1% Tween 20® (Sigma Chemical Co., St. Louis, Mo.; polyoxyethylenesorbitan monolaurate). The plate wells were then blocked with 200 μl/well blocking buffer and incubated for 1-2 h at 37° C. The blocking buffer contained 0.135M NaCl, 2.7 mM KCl, 25 mM Tris at about pH 7.4, 0.1% Tween 20®, and 0.5% BSA (bovine serum albumin, Sigma fraction V; Sigma). After incubation, the plates wells were again washed with 200 μl/well of wash buffer to remove excess blocking buffer.
Briefly, fibrinogen was dialyzed against 0.1M NaHCO3, pH 8.5 (coupling buffer) at a concentration of 1 mg/ml. BNHS was dissolved in dimethylformamide at a concentration of 1.7 mg/ml, and added to fibrinogen in coupling buffer at a ratio of 30 μl BNHS to 1 ml fibrinogen. The mixture was incubated with rocking for 4 h at room temperature, dialyzed against PBS, and stored in aliquots at -80° C.
Biotinylated fibrinogen (40 μl of 20 μg/ml solution) was added to each plate well. Except in control wells (which received 10 μl of 10% DMSO alone), 10 μl of each of the 11,198 crude extracts in 10% DMSO were added to duplicate wells after the addition of biotinylated fibrinogen, resulting in a 1% final assay concentration of DMSO.
FXIIIa (recombinant human FXIIIa2 (ZymoGenetics), as described in European Patent No. 0 268 772, granted Apr. 26, 1995, and incorporated herein by reference) was diluted to 100 μg/ml in a solution of 50 mM Tris, 5 mM CaCl2 at pH 7.4 containing 1 unit/ml thrombin (bovine; Enzyme Research Labs) and incubated for 20 min at 37° C. FXIIIa then was diluted to 1 μg/ml in a cross-linking buffer consisting of the blocking buffer described above plus 20 mM CaCl2 and 75 ng/ml D-phenylalanyl-L-prolyl-L-arginine chloromethyl ketone (PPACK; Calbiochem, La Jolla, Calif.). Fifty microliters of FXIIIa in cross-linking buffer was added to each test and control well. All wells then were incubated for about 10 min at 37° C.
After incubation, the wells were washed twice with 200 μl/well of wash buffer to remove all biotinylated fibrinogen that was not cross-linked to fibronectin.

The target in data set [4] is T3, papain (Carica papaya, UniProt P00784).
T3 construct: purchased Boehringer Mannheim
T3 sequence (P00784 134-345): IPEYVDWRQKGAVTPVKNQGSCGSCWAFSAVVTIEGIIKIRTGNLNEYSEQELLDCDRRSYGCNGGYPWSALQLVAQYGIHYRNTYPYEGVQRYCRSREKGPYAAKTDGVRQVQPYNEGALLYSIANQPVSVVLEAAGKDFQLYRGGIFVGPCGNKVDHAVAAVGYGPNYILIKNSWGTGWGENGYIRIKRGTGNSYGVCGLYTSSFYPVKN
The data set is described as follows: Papain inhibition assay. Format: biochemical. On the procedure: For the papain inhibition assay, a buffer containing 0.1M NaPO4 and 2.5 mM EDTA at about pH 7.0 was used. An Azocoll™ solution was prepared by adding 5 mg Azocoll™ (Calbiochem; an insoluble, powdered cowhide to which a bright red dye is attached (azo-dye-bound collagen)) to the buffer while stirring. The Azocoll was prewarmed to about 37° C. 10 μl of 0.1M L-cysteine, 10 μl of 50 μg/ml papain (Boehringer Mannheim), 0.5 ml of Azocoll solution, and 50 μl of one of a series of concentrations of ZG-1400a, iodoacetamide, iodoacetic acid, cerulenin, or 50 μl of the DMSO or ethanol negative controls were added to duplicate 13×75 mm glass tubes. The ZG-1400a, iodoacetamide, and iodoacetic acid were individually prepared in 10% DMSO and tested using half-log dilutions, starting at a final assay concentration of 100 μM and diluting to 10 nM. Cerulenin was prepared in 10% ethanol and tested using half-log dilutions, starting at a final assay concentration of 100 μM and diluting to 10 nM. A negative (no inhibition) control for ZG-1400a, iodoacetamide and iodoacetic acid was 50 μl of 10% DMSO to give a final assay concentration of 1% DMSO in each control tube. A negative control for cerulenin was 50 μl of 10% ethanol to give a final assay concentration of 1% ethanol in each control tube. The test and control tubes then were incubated for 30 min at 37° C. in an agitated water bath.
After incubation, all of the tubes were centrifuged at 2000 RPM for 5 min. The supernatant was removed and its absorbance was read at 520 nm on a Beckman DU640 spectrophotometer to determine the amount of papain inhibition.

Data set [5] has as its system clot formation. As to conditions: background; cited from earlier work.

`O=C(O)CI` [Iodoacetic Acid, iodoacetic acid]: the values for the IC50 in data set [1], in data set [3] and in data set [4] were 32 µM, 350 µM and 0.7 µM, respectively. The “susceptibility of plasma clots to lysis by plasminogen and urokinase” value in data set [2] is “significantly more susceptible to lysis”. Also, the “% Plasma Clot lysis” value in data set [2] (clots formed about 20 h, plasminogen and urokinase about 4 h) is reported as 23%. In data set [4] (100 μM to 10 nM, 30 min at 37° C.), the “Papain inhibition (result in words, IC50 table)” value is recorded as “did cause inhibition”.
Regarding `O=c1oc2ccccc2c(O)c1Cc1c(O)c2ccccc2oc1=O` [dicoumarin], in data set [5], the internal bleeding entry is given as “more prone to internal bleeding” and the toxicity result is recorded as “associated with toxicity”.
